Results on one substance are retold here after patent US20090170759A1, “NEUROPROTECTIVE PEPTIDES” (priority 2007, published 2009).

One series relates to bak. As to the kind of experiment: EPO induced gene expression in PC12 cells, quantitative RT-PCR (bak). It is filed as cell-based, rat. The settings on record: PC-12 cells. How it is done:
(§1) PC-12 cells (from a rat Pheochromocytoma) were cultured on poly-D-Lysine coated tissue culture plastic in DMEM containing 10% FBS and 5% Horse serum. To induce the neuronal phenotype in PC-12 cells, serum was removed and the cells were treated with NGF (50 ng/ml). Cells were grown for 7 days in the presence of the NGF then used for experiments.
PC-12 cells were cultured as described in Example 1 in a 10 cm poly-D-lysine coated tissue culture dish. […] Total RNA was then isolated using a Qiagen RNAeasy mini prep kit and used for RT-PCR.
(§2) Real time reverse transcription and PCR were performed in a single reaction using a light cycler and an RNA amplification kit from Roche Molecular Biochemicals. RNA was quantitated and added in equal amounts to reaction mix that includes the dsDNA specific dye SYBR green I. Specific PCR reaction products are quantitated by detecting the amount of fluorescence in the reaction at each PCR cycle. Final analysis was performed using the data analysis software included with the light cycler instrument.

In series [1] the test system is spontaneous hypertensive rats. Briefly: Experimental model of cerebral ischemia (tandem CCA/MCA occlusion), infarct volume. It counts as in vivo, rat. Conditions: listed as EPO. How it is done: Male spontaneous hypertensive rats (Charles River) weighing between 250-300 g were weighed and then anesthetized with ketamine (100 mg/ml)/xylazine (20 mg/ml) cocktail (1.2 ml/kg; i.p.). The level of anesthetic was assessed by corneal reflex (air puff to eye) and leg jerk in response to tail or foot pinch. Once the rat was anesthetized, it was placed on a small animal surgical board and restrained during the surgical procedure. The rat's body temperature was monitored continuously with a rectal probe and maintained at 37° C. with a homeostatic heating pad.
Rats were rendered ischemic by tandem occlusion of the left common carotid artery and the left middle cerebral artery for 2 h followed by 22 h of reperfusion using a modification of the technique described by Brint and co-workers (J. Cereb Blood Flow Metab 8:474-485, 1988). Specifically, the left CCA was isolated through an incision in the ventral surface of the neck. […]
Study I: EPO and Vehicle Delivered Via Osmotic Mini-Pump • […] prior to the onset of ischemia, an osmotic mini-pump (Model 1003D; Alza) filled with vehicle or EPO was placed between the scapula of the rat. […] Twenty-two hours later, the rats were evaluated for behavioral performance, a blood sample was collected for terminal plasma levels of EPO and then the rat was euthanized, brain removed, sectioned and stained for histological analysis.
Study II: EPO and Vehicle Delivered as a Single Intravenous Bolus Injection • On Day One, the rats were rendered ischemic as described above. […] Twenty-two hours later, the rats were evaluated for behavioral performance, a blood sample was collected for terminal plasma levels of EPO and then the rat was euthanized, brain removed, sectioned and stained for histological analysis. […]

Series [2] in a line: Plasma determinations by EPO ELISA. It is filed as in vivo, rat. Conditions: terminal sample. An excerpt:
Plasma Determinations: Blood samples were collected from each rat via the orbital sinus at the time of sacrifice. Plasma was separated out, frozen and analyzed by EPO ELISA for determination of plasma concentration (U/ml).

The test system of the next series is PC-12 cells. As to the kind of experiment: Glutamate toxicity in PC-12 cells (trypan blue exclusion). It is filed as cell-based, rat. The protocol:
[…] cells (from a rat Pheochromocytoma) were cultured on poly-D-Lysine coated tissue culture plastic in DMEM containing 10% FBS and 5% Horse serum. To induce the neuronal phenotype in PC-12 cells, serum was removed and the cells were treated with NGF (50 ng/ml). Cells were grown for 7 days in the presence of the NGF then used for experiments.
PC-12 cells were cultured as described above. 24 hr prior to insult, cells were treated with rhEPO at concentrations ranging from 1 pm to 1 nm. On the day of the experiment, cells were exposed to 200 μM glutamate for 30 min. Cells were then washed 2 times with fresh media to remove the glutamate and cultured in fresh media containing NGF but no EPO. After 24 hr cells were assayed for viability using a trypan blue exclusion assay. Briefly, media was removed and the cells were incubated in 0.4% Trypan Blue for 5 min. Cells were then washed gently with PBS, then fixed with 10% formalin. Cell viability was determined by counting the total number of cells vs. the number of trypan blue positive (dead) cells.

The test system of a further series is bclXL. Briefly: EPO induced gene expression in PC12 cells, quantitative RT-PCR (bclXL). It counts as cell-based, rat. Conditions: PC-12 cells. How it is done:
as §1
PC-12 cells were cultured as described in Example 1 in a 10 cm poly-D-lysine coated tissue culture dish. Cells were incubated in the presence of 1 U/ml of EPO for 24 hr. Total RNA was then isolated using a Qiagen RNAeasy mini prep kit and used for RT-PCR.
as §2

The mark [3] stands for this setting: 1 nm EPO for 24 hr (FIG. 3 legend).

Entries after “also recorded” stand apart in the source; their conditions may differ.

For the substance “rhEPO: purified, recombinant human EPO (rhEPO), currently formulated and distributed under the trademarks of EPREX, ERYPO, or PROCRIT”, the “decrease in the expression of the pro-apoptotic Bak” value with bak (setting [3]) is reported as “greater than 5 fold”. Besides, the “decrease in the expression of the pro-apoptotic gene bak” value in the series on bak (EPO 1 U/ml for 24 hr) is given as 5 fold. In series [1] (132 or 1321 U/day continuous iv infusion via osmotic mini-pump, started before ischemia), the “infarct volume, Study I” value is “significantly reduced infarct volume; also recorded: protects against ischemic injury”. For the same substance, in series [1] (repeat iv bolus of 2500 U/kg at 15 min, 2 h, 4 h and 6 h post-occlusion), the “infarct volume, Study III” value is “significant decrease in infarct volume; also recorded: protects against ischemic injury”. Also, the “ischemic damage, Study II” value in series [1] (single iv bolus 15 min post-occlusion at 1000, 2500 or 5000 U/kg) is reported as “did not protect against ischemic damage; also recorded: does not protect against ischemic injury”. Also, the “plasma concentrations, Study I” value in series [2] (continuous infusion) is “correlated with the protective effect”. Also, in series [2] (single iv bolus 1000, 2500 or 5000 U/kg), the “plasma concentrations, Study II” value is “low in each group”. Further, the “neuroprotective effect at 1 nm, glutamate toxicity” value in the series with PC-12 cells (1 nm) is “no significant effect”. Moreover, the “cell survival after glutamate (in words)” value with PC-12 cells (1 to 10 pm given 24 hours prior to glutamate (200 um), p<0.001) was “significantly increased cell survival”. Also, the “cell death induced by glutamate toxicity (in words)” value in the series on PC-12 cells (24 hr pre-treatment) is reported as “significant decrease in cell death”. The “peak concentration for the neuroprotective effect, glutamate toxicity” value with PC-12 cells (24 hr pre-treatment, 200 μM glutamate) is 10 pm. The “increase in the expression of the anti-apoptotic gene bclXL” value in the series with bclXL (setting [3]) and in the series on bclXL (EPO 1 U/ml for 24 hr) was 6 fold each time.
